Reference: ChEMBL document CHEMBL3751674, “Synthesis, antimicrobial activity of Schiff base compounds of cinnamaldehyde and amino acids” (2016)

Legend:
Format in all cases: functional
Conditions in all cases: read-out: DIZ
Aspergillus niger [1] = assay: Antifungal activity against Aspergillus niger at 0.25 mol/L after 2 to 4 days by paper disc method
Aspergillus niger [2] = assay: Antifungal activity against Aspergillus niger at 0.13 mol/L after 2 to 4 days by paper disc method
Aspergillus niger [3] = assay: Antifungal activity against Aspergillus niger at 0.06 mol/L after 2 to 4 days by paper disc method
Aspergillus niger [4] = assay: Antifungal activity against Aspergillus niger at 0.03 mol/L after 2 to 4 days by paper disc method
Penicillium citrinum [5] = assay: Antifungal activity against Penicillium citrinum at 0.25 mol/L after 2 to 4 days by paper disc method
Penicillium citrinum [6] = assay: Antifungal activity against Penicillium citrinum at 0.13 mol/L after 2 to 4 days by paper disc method
Penicillium citrinum [7] = assay: Antifungal activity against Penicillium citrinum at 0.06 mol/L after 2 to 4 days by paper disc method
Penicillium citrinum [8] = assay: Antifungal activity against Penicillium citrinum at 0.03 mol/L after 2 to 4 days by paper disc method
Escherichia coli [9] = assay: Antibacterial activity against Escherichia coli at 0.25 mol/L after 12 to 24 hrs by paper disc method
Escherichia coli [10] = assay: Antibacterial activity against Escherichia coli at 0.13 mol/L after 12 to 24 hrs by paper disc method
Escherichia coli [11] = assay: Antibacterial activity against Escherichia coli at 0.06 mol/L after 12 to 24 hrs by paper disc method
Escherichia coli [12] = assay: Antibacterial activity against Escherichia coli at 0.03 mol/L after 12 to 24 hrs by paper disc method
Staphylococcus aureus [13] = assay: Antibacterial activity against Staphylococcus aureus at 0.25 mol/L after 12 to 24 hrs by paper disc method
Staphylococcus aureus [14] = assay: Antibacterial activity against Staphylococcus aureus at 0.13 mol/L after 12 to 24 hrs by paper disc method
Staphylococcus aureus [15] = assay: Antibacterial activity against Staphylococcus aureus at 0.06 mol/L after 12 to 24 hrs by paper disc method
Staphylococcus aureus [16] = assay: Antibacterial activity against Staphylococcus aureus at 0.03 mol/L after 12 to 24 hrs by paper disc method

Row | SMILES | zone of inhibition at 250000 µM (Aspergillus niger [1]) [mm] | zone of inhibition at 130000 µM (Aspergillus niger [2]) [mm] | zone of inhibition at 60000 µM (Aspergillus niger [3]) [mm] | zone of inhibition at 30000 µM (Aspergillus niger [4]) [mm] | zone of inhibition at 250000 µM (Penicillium citrinum [5]) [mm] | zone of inhibition at 130000 µM (Penicillium citrinum [6]) [mm] | zone of inhibition at 60000 µM (Penicillium citrinum [7]) [mm] | zone of inhibition at 30000 µM (Penicillium citrinum [8]) [mm] | zone of inhibition at 250000 µM (Escherichia coli [9]) [mm] | zone of inhibition at 130000 µM (Escherichia coli [10]) [mm] | zone of inhibition at 60000 µM (Escherichia coli [11]) [mm] | zone of inhibition at 30000 µM (Escherichia coli [12]) [mm] | zone of inhibition at 250000 µM (Staphylococcus aureus [13]) [mm] | zone of inhibition at 130000 µM (Staphylococcus aureus [14]) [mm] | zone of inhibition at 60000 µM (Staphylococcus aureus [15]) [mm] | zone of inhibition at 30000 µM (Staphylococcus aureus [16]) [mm]
1 | O=C(O)[C@H](Cc1ccc(O)cc1)/N=C/C=C/c1ccc(Cl)cc1 | 29.7 | 15.7 | 15.5 | 12.3 | 25 | 23.5 | 15.7 | 11.5 | 17.8 | 12 | 15.7 | 13.7 | 19.3 | 12.7 | 11.7 | 9.7
2 | COc1ccc(/C=C/C=N/[C@@H](Cc2ccc(O)cc2)C(=O)O)cc1 | 19.5 | 14.7 | 13.8 | 10.3 | 24 | 16.5 | 19 | 10.8 | 18 | 12.3 | 8.3 | 12 | 8.5 | 8.7 | 8 | 8
3 | O=C(O)[C@H](Cc1ccccc1)/N=C/C=C/c1ccccc1 | 10.7 | 9.2 | 8.7 | 8 | 10.7 | 9.7 | 8 | 8 | 8 | 8 | 8 | 8 | 11 | 8 | 8 | 10
4 | COc1ccc(/C=C/C=N/[C@@H](Cc2ccccc2)C(=O)O)cc1 | 19 | 13 | 10.8 | 18.3 | 24.7 | 19.7 | 10.5 | 14 | 12.3 | 13.8 | 8 | 13.2 | 12 | 8.3 | 8 | 8
5 | O=C(O)[C@H](Cc1ccccc1)/N=C/C=C/c1ccc(Cl)cc1 | 26 | 19.7 | 21 | 12.3 | 35 | 23.2 | 21 | 18.3 | 19.5 | 26 | 19 | 9.2 | 33 | 29 | 13.3 | 9
6 | O=C(O)c1cn(C2CC2)c2cc(N3CCNCC3)c(F)cc2c1=O [CIPROFLOXACIN] |  |  |  |  |  |  |  |  | 24.3 | 23.3 |  | 22.3 | 21 | 21 | 16.7 | 16
7 | OC(Cn1cncn1)(Cn1cncn1)c1ccc(F)cc1F [FLUCONAZOLE] | 25 | 18.7 | 17.7 | 14.5 | 13.3 | 13 | 9.2 | 8 |  |  |  |  |  |  |  | 
